Entries after “also recorded” stand apart in the source; their conditions may differ. Where two headings read alike, the source gives them in different places.
Columns and labels:
[1] = tested on: convulsions; settings: WO 95/18617 and WO 96/21640; cited from earlier work
[2] = tested on: tonic hind limb extensions (maximal electroshock), mouse; experiment: maximal electroshock (MES) test in mouse, suppression of tonic hind limb extensions; format: in vivo; settings: for ED50: po, 1 h, read-out: ED50 MES
[3] = horizontal screen test in mouse (impaired motor function, neurotoxicity; therapeutic index); format: in vivo; settings: po, mouse
Protocol: (§1) In this model mice are placed individually on top of a squire wire screen which is mounted horizontally on a metal rod, which is then rotated 180° so that mice are on the bottom of the screens. Impairment of the motor function is observed from the number of animals that falls from the screen or fail to climb to the top of the screens. The medial neurological toxic dose (TD50) is than calculated as above. The ratio of TD50 and ED50 refers to the therapeutic index (T.I.) for each compound. The T.I. is used to show a useful separation between neurotoxicity and antiepileptic activity. The larger the T.I. would indicate a better separation between the above activities and a good profile as anticonvulsants.

[4] = tested on: motor function, mouse; experiment: as above; format: in vivo; settings: for T.I. (therapeutic index): ratio of TD50 (horizontal screen) and ED50 (MES), mouse p.o.; for T.I. (in words) / neurotoxicity / impairment of motor coordination (in words): mouse; for T.I. (in words): TD50/ED50; for neurotoxicity / impairment of motor coordination (in words): p.o., horizontal screen
Protocol: as §1

[5] = tested on: tonic hind limb extensions (maximal electroshock), rat; experiment: maximal electroshock (MES) test in rat, incl. time course of anticonvulsant activity; format: in vivo; settings: for Duration of action (time at which the protection is statistically significant) / Peak of activity (time of the maximal effect): MES, equiactive dose; for Duration of action (time at which the protection is statistically significant) / Peak of activity (time of the maximal effect) / ED50 / anticonvulsant activity in rat MES (in words): rat; for Duration of action (time at which the protection is statistically significant) / Peak of activity (time of the maximal effect) / anticonvulsant activity in rat MES (in words): p.o.; for ED50: po
Protocol: The compounds of the invention were evaluated in some pharmacological tests in order to investigate their potential anticonvulsant activity. To this end, compounds were screened in the maximal electroshock (MES) test. This model is widely used to assess the efficacy of antiepileptic agents against generalized and partial seizures. This study was performed in both rat and mouse by using the experimental procedure described in W. Losher et al., Epilepsy Res., 2 (1988), 145-181. Briefly, a 60 Hz alternate current (mice 50 mA, rats 150 mA) was delivered for 0.2 sec through corneal electrods by means of an electrical stimulator. […] Groups of 10 animals per dose were used and the ED50 was calculated from the dose-effect curve accordingly to Litchfield and Wilcoxon (J. Pharmacol. Exp. Ther., 96 (1949), 99-113).
In the rat MES model only the time course of anticonvulsant activity was evaluated. Groups of 10 rats were treated at their equiactive dose 30, 60, 120, 240, 360 and 480 min before the establishment of the electroshock. The peak of anticonvulsant activity and the duration of action were then evaluated.

[6] = tested on: tonic convulsions induced by bicuculline, mouse; experiment: bicuculline-induced tonic convulsions in mouse; format: in vivo; settings: for anticonvulsant activity against bicuculline (in words): p.o.; for ED50: po, bicuculline s.c.
Protocol: Further to the MES test in mouse, some compounds were also evaluated in the MES test in rat and in a chemical model of tonic convulsions induced by bicuculline accordingly to the procedure described in Swinyard E. A. et al., Antiepileptic Drugs, 3rd Edition, Raven Press, New York (1989).
As reference compound FCE 26743 (S)-2-(4-(3-fluorobenzyloxy)benzylamino)propanamide was used, disclosed in the prior art in EP-B1-0400495.

[7] = tested on: electro-shock convulsions, mouse; settings: claimed in WO 94/22808; cited from earlier work
[8] = in vivo; cited from earlier work
[9] = mouse, p.o., 60 min after administration, HCl salts
[10] = horizontal screen test, p.o., HCl salts, read-out: TD50 Horizontal screen
[11] = in vivo, p.o., HCl salts, read-out: TD50 Horizontal screen

## NC(=O)CNC1CCc2ccccc21 (racemic) [racemic N-(2-acetamido)-1-aminoindan, N-(2-acetamido)-1-aminoindan]
[1]
  anticonvulsant activity (in words): not very effective
  therapeutic index (in words): don't seem endowed with a particularly favorable therapeutic index

## NC(=O)[C@@H](CO)N[C@H]1CCc2ccccc2C1 [CHF 2983, 3-hydroxy-2-(R)-(1,2,3,4-tetrahydro-naphthalen-2-(S)ylamino)propanamide]
[2]; mouse, p.o.
  anticonvulsant activity / potency in MES (in words): A good profile of anticonvulsant activity
[2]; [9]
  ED50: 43 mg/kg
[3]; [10]
  TD50: 1300 mg/kg
[4]
  T.I. (therapeutic index): 30
[5]
  Duration of action (time at which the protection is statistically significant): 2 h
  Peak of activity (time of the maximal effect): 1 h
  ED50: 19 mg/kg
  anticonvulsant activity in rat MES (in words): more potent
[6]
  anticonvulsant activity against bicuculline (in words): in the same order of potency of their MES anticonvulsant activity
  ED50: 62 mg/kg

## NC(=O)[C@H](CO)N[C@@H]1CCc2ccccc2C1 [CHF 2991]
[2]; mouse, p.o.
  anticonvulsant activity / potency in MES (in words): A good profile of anticonvulsant activity
[2]; [9]
  ED50: 38 mg/kg
[3]; [10]
  TD50: 1100 mg/kg
[4]
  T.I. (therapeutic index): 29

## Cl.NC(=O)[C@H](CO)NC1Cc2ccccc2C1 [CHF 2993, (S)-3-hydroxy-2-(2-indanylamino)propanamide hydrochloride]
[2]; mouse, p.o.
  anticonvulsant activity / potency in MES (in words): equipotent in the MES test
[2]; [9]
  ED50: 44 mg/kg
[3]; [11]
  TD50: 1170 mg/kg
[4]
  T.I. (therapeutic index): 27
[5]; MES time course
  duration of action (in words): longest duration of action
[5]
  Duration of action (time at which the protection is statistically significant): 6 h
  Peak of activity (time of the maximal effect): 3 h
  ED50: 31 mg/kg
  anticonvulsant activity in rat MES (in words): anticonvulsant activity close to that found in the same model in mouse
[6]
  anticonvulsant activity against bicuculline (in words): in the same order of potency of their MES anticonvulsant activity
  ED50: 65 mg/kg

## NC(=O)[C@@H](CO)NC1Cc2ccccc2C1 [CHF 2996]
[2]; mouse, p.o.
  anticonvulsant activity / potency in MES (in words): equipotent in the MES test
[2]; [9]
  ED50: 34 mg/kg
[3]; [10]
  TD50: > 1500 mg/kg
[4]
  T.I. (in words): higher T.I.
  neurotoxicity / impairment of motor coordination (in words): low value of neurotoxicity
  T.I. (therapeutic index): 44
[5]
  Duration of action (time at which the protection is statistically significant): 2 h
  Peak of activity (time of the maximal effect): 1 h
  ED50: 32 mg/kg
  anticonvulsant activity in rat MES (in words): anticonvulsant activity close to that found in the same model in mouse

## Cl.NC(=O)CNC1Cc2ccccc2C1 [CHF 3381, 2-(2-indanylamino)acetamide hydrochloride]
[2]; Mus musculus
  ED50: 21 mg/kg
[2]; mouse, p.o., hydrochloride
  anticonvulsant activity / potency in MES (in words): more potent in inhibiting MES; also recorded: more potent as an anticonvulsant than the 1-aminoindane of the prior art
[3]; [11]
  TD50: 274 mg/kg
[4]
  T.I. (in words): higher T.I. than the prior art 1-aminoindane compound 2
  neurotoxicity / impairment of motor coordination (in words): more neurotoxic
  T.I. (therapeutic index): 13

## C[C@H](NC1Cc2ccccc2C1)C(N)=O [CHF 3431, (S) 2-(2-indanylamino)propionamide]
[2]; mouse, p.o.
  anticonvulsant activity / potency in MES (in words): more potent in inhibiting MES
[2]; [9]
  ED50: 22 mg/kg
[3]; [10]
  TD50: 251 mg/kg
[4]
  neurotoxicity / impairment of motor coordination (in words): more neurotoxic
  T.I. (therapeutic index): 11

## CN(C1Cc2ccccc2C1)[C@H](CO)C(N)=O.Cl [CHF 3440, (R)-3-hydroxy-2-(N-methyl-2-indanylamino)propanamide hydrochloride]
[2]; mouse, p.o.
  anticonvulsant activity / potency in MES (in words): same anticonvulsant activity
[2]; [9]
  ED50: 35 mg/kg
[3]; [11]
  TD50: 689 mg/kg
[4]
  neurotoxicity / impairment of motor coordination (in words): increase of the neurotoxicity
  T.I. (therapeutic index): 20

## C[C@H](NCc1ccc(OCc2cccc(F)c2)cc1)C(N)=O [FCE 26743, (S)-2-(4-(3-fluorobenzyloxy)benzylamino)propanamide, reference compound]
[5]
  Duration of action (time at which the protection is statistically significant): 1 h
  Peak of activity (time of the maximal effect): 0.5 h
  ED50: 11 mg/kg
  anticonvulsant activity in rat MES (in words): anticonvulsant activity close to that found in the same model in mouse
[6]
  anticonvulsant activity against bicuculline (in words): in the same order of potency of their MES anticonvulsant activity
  ED50: 20 mg/kg

## CS(=O)(=O)O.NC(=O)C(CO)NCc1ccc(OCCCc2ccccc2)cc1 (stereo not shown) [FCE 28245, 3-hydroxy-2-(4-(3-phenylpropyloxy)benzylamino)propanamide methanesulphonate, reference compound]
[2]; [9]
  ED50: 180 mg/kg
[3]; in vivo
  TD50: 1670 mg/kg
[4]
  T.I. (therapeutic index): 9
[7]
  anticonvulsant activity in electro-shock convulsions (in words): claimed to be active

## NC(=O)CN(CC(N)=O)C1CCc2ccccc21 (stereo not shown) [N,N-di-(2-acetamido)-1-aminoindan]
[1]
  anticonvulsant activity (in words): not very effective
  therapeutic index (in words): don't seem endowed with a particularly favorable therapeutic index

## NC(=O)CNC1CCCc2ccccc21 (stereo not shown) [N-(2-acetamido)-1-aminotetralin]
[1]
  anticonvulsant activity (in words): not very effective
  therapeutic index (in words): don't seem endowed with a particularly favorable therapeutic index

## NC(=O)CNC1CCc2ccc(F)cc21 (stereo not shown) [N-(2-acetamido)-6-fluoro-1-aminoindan]
[1]
  anticonvulsant activity (in words): not very effective
  therapeutic index (in words): don't seem endowed with a particularly favorable therapeutic index

## CC(NC1CCc2ccccc21)C(N)=O (stereo not shown) [N-(2-propionamido)-1-aminoindan]
[1]
  anticonvulsant activity (in words): not very effective
  therapeutic index (in words): don't seem endowed with a particularly favorable therapeutic index

## NC(=O)CN[C@H]1CCc2ccccc21 [TEVA Comp. 2, (S)-2-(indanylamino)acetamide, reference compound]
[2]; [9]
  ED50: 38 mg/kg
[3]; in vivo
  TD50: 299 mg/kg
[4]
  T.I. (therapeutic index): 8

## NC(=O)N1c2ccccc2C=Cc2ccccc21 [carbamazepine]
[8]
  therapeutic index (in words): smaller therapeutic indexes

## O=C1NC(=O)C(c2ccccc2)(c2ccccc2)N1 [phenytoin]
[8]
  therapeutic index (in words): smaller therapeutic indexes

Source: patent US6114391A, “α-amino acid amides, preparation thereof and the therapeutical use thereof” (priority 1996, dated 2000)
